# Test results reported in patent US11666600B2, “Methods for culturing and/or differentiating hematopoietic stem cells into progenitors and uses thereof” (HEMA-QUEBEC, priority 2015, dated 2023).
# Experiments:
# [1] = test system: aryl hydrocarbon receptor (AhR) pathway; conditions: Fares et al., 2014; cited from earlier work
# [2] = test system: CD34+/CD45RA− mobilized peripheral blood cells; conditions: Fares et al., 2014; cited from earlier work
# cord blood CD34+ cells = assay: Expansion of CD34+/CD41+ megakaryocytic progenitors from cord blood CD34+ cells; assay type: cell-based, human; conditions: 39° C. + PIC2 500 nM; 14 days; SFEM + BS1; FIG. 7
# Experimental: Human cord blood (CB) was collected after obtaining written informed consent from donors, following our institutional Research Ethics Committee guidelines. Mononuclear cells (MNCs) were first separated over a Ficoll-Hypaque™ density gradient (GE Healthcare), then cryopreserved at −180° C. in Cryostor CS10™ medium ([…] Technologies). Thawed MNCs from six to eight CB were pooled before CD34 isolation. CB CD34+ cells were enriched by positive selection using the EasySep™ CD34 enrichment kit, according to the manufacturer's instructions ([…] Technologies). […]
# Cellular counts and viability were determined by adding Solution 18 (Acridine Orange and DAPI solution, ChemomMetec) and using NucleoCounter™ NC-250 for detection (ChemomMetec).
# For cells expanded in conditions favoring differentiation towards the MK lineage, surface markers were detected using the following antibodies: CD34-FITC, CD41a-APC and CD42b-PE. […] All samples were analyzed on an Accuri™ C6 flow cytometer (BD Biosciences), and raw data were analyzed with FCS Express 5 Flow Research Edition software from at least 15 000 viable cell events acquired for each sample. […]
# Cellular counts and viability were determined as described in Example 6.5. […]
compound,measurement,setting,value
"COC(=O)c1ccc2c(c1)[nH]c1ncnc(NCCCN3CCCCC3)c12 [PIC2, Methyl 4-((3-(piperidin-1-yl)propyl)amino)-9H-pyrimido[4,5-b]indole-7-carboxylate]",suppression of the aryl hydrocarbon receptor (AhR) pathway,[1],without acting as suppressors
same,expansion of CD34+/CD45RA− mobilized peripheral blood cells (enriched in LT-HSCs),[2],stimulate expansion
same,combined use of mild hyperthermia and PIC2 on expansion of CB CD34+/CD41+ cells,cord blood CD34+ cells,synergistic effect
